Patent US20130071368A1, “PREPARATION, USE OF PREPARATION FOR TREATMENT, AND METHOD OF TREATMENT OF INTESTINAL INFECTION” (FAYREFIELD FOODS LIMITED, priority 2007, published 2013)

System: C. difficile infection
Test: Anecdotal treatment of patients with C. difficile infection
Type: in vivo, human
Settings: patient, second presentation
Description: A patient was suffering severe symptoms of C. difficile infection, in spite of narrow-spectrum antibiotic treatment, for a period of approximately three months. The treatment protocol was then modified to include, additionally, the oral administration of cranberry puree and GOS at least once daily.
A further patient, presenting for the second time with symptoms of c. difficile was treated initially with metronidazole and then, subsequently, with vancomycin. […] At the point of administration of a mixture of galacto-oligosaccharide and cranberry puree the patient was recording 16 episodes of open bowel in a 24 hour period, was suffering from severe dehydration and was causing significant concern that death might imminently result.

Row | SMILES | effect of antibiotic treatment on symptoms of c. difficile
1 | Cc1ncc([N+](=O)[O-])n1CCO [metronidazole] | Neither treatment was having any effect
2 | CN[C@H](CC(C)C)C(=O)N[C@H]1C(=O)N[C@@H](CC(N)=O)C(=O)N[C@H]2C(=O)N[C@H]3C(=O)N[C@H](C(=O)N[C@H](C(=O)O)c4cc(O)cc(O)c4-c4cc3ccc4O)[C@H](O)c3ccc(c(Cl)c3)Oc3cc2cc(c3O[C@@H]2O[C@H](CO)[C@@H](O)[C@H](O)[C@H]2O[C@H]2C[C@](C)(N)[C@H](O)[C@H](C)O2)Oc2ccc(cc2Cl)[C@H]1O [vancomycin] | Neither treatment was having any effect
